This assay deals with T1, FUS RRM domain (Homo sapiens, UniProt P35637).
T1 construct: RRM domain (285–370)
T1 sequence (P35637 284-371 limits assumed): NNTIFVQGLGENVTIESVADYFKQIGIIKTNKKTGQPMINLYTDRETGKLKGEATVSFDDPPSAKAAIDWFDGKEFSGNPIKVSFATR
Description: 1H-15N HSQC NMR titration, one-site fit of chemical shift differences. The class given is binding.

By Kd is commonly meant the equilibrium constant for the complex coming apart. With `O=P(O)(O)OP(=O)(O)OP(=O)(O)O` [PPP], the Kd is 12.6 ± 3.53 mM.

As for `Nc1ncnc2c1ncn2[C@@H]1O[C@H](COP(=O)(O)OP(=O)(O)OP(=O)(O)O)[C@@H](O)[C@H]1O` [ATP], the Kd amounted to 3.77 ± 0.49 mM.

As to `Nc1ncnc2c1ncn2[C@@H]1O[C@H](COP(=O)(O)O)[C@@H](O)[C@H]1O` [AMP], the Kd amounted to 17.2 ± 2.61 mM.

Source of the values: paper PMC6586847, “ATP binds and inhibits the neurodegeneration-associated fibrillization of the FUS RRM domain” (Communications Biology, 2019).
